Laboratory results: patent US11091479B2, “Triazolopyridin-3-ones or their salts and pharmaceutical compositions comprising the same” (YUHAN CORPORATION, priority 2018, dated 2021)
Where a name gives a salt, the structure may show the parent alone.

What was measured:
Format in all cases: biochemical
[1] = target: T1, recombinant human VAP-1 (Homo sapiens, UniProt Q16853); experiment: Activity on recombinant human VAP-1, HRP-coupled Amplex Red hydrogen peroxide assay, benzylamine substrate; conditions: 30 min incubation at 37° C., 1 mM benzylamine, read-out: Inhibitory Activity (IC50, nM) human VAP-1
T1 construct: purchased R&D systems
T1 sequence (Q16853 1-763): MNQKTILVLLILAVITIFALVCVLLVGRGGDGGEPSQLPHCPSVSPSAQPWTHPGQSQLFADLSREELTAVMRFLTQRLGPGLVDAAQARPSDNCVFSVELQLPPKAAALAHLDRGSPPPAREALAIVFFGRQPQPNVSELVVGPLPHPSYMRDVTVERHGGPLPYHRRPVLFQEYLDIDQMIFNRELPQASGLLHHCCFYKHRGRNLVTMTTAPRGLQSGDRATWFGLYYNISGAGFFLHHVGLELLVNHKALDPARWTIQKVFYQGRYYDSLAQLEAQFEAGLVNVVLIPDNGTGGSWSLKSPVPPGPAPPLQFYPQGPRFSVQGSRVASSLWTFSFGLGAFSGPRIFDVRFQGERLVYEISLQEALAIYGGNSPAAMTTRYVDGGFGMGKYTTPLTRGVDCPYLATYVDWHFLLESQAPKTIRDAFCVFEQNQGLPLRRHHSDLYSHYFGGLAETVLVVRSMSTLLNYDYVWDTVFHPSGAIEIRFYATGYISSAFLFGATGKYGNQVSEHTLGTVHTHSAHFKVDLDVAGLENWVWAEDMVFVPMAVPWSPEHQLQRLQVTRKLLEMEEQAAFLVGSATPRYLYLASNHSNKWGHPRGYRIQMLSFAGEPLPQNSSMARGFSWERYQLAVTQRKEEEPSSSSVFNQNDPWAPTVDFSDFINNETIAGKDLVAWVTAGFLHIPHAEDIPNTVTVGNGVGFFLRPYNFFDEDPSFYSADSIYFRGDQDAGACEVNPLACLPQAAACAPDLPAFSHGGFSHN
Method: (§1) The compounds according to the present technology were evaluated in terms of activity on recombinant human VAP-1 (R&D systems) by measuring the level of hydrogen peroxide in horseradish peroxidase (HRP)-coupled reaction using Amplex Red Hydrogen Peroxide Assay Kit (Molecular Probes, Invitrogen, USA). The experiment was carried out at room temperature using benzylamine as a substrate. In the HRP-coupled reaction, hydrogen peroxide oxidation of 10-acetyl-3,7-dihydroxyphenoxazine (Amplex Red reagent) produces resorufin, which is a highly fluorescent compound. Briefly, the test compound was dissolved in dimethyl sulfoxide (DMSO) at a concentration of 20 mM. The dose-response assessment was made by 1:3 serial dilution in DMSO, thereby creating a 8 point curve. The concentration of the upper part was controlled according to the efficacy of the compounds, followed by dilution with a reaction buffer solution to obtain a final DMSO concentration of less than 1%. To each well of a 96 black well plate, human VAP-1 purified in 50 mM sodium phosphate buffer solution (pH7.4) was added. The test compounds dissolved in DMSO were incubated with the human VAP-1 enzymes at 37° C. for 30 minutes. After 30-minute incubation, each well was added with a reaction mixture containing 200 uM Amplex Red reagent prepared from 50 mM sodium phosphate buffer solution (pH 7.4), 1 mM benzylamine, and 1 U/mL HRP. Fluorescence intensity was measured at several time points during 1-2 hours using a microplate reader (Flexstation3, Molecular Devices) under the wavelength condition exciting at 544 nm and reading the emission at 590 nm. The inhibitory effect of the compounds was measured as a decrease (%) in the signal rate as compared to the control group without any inhibitor (only diluted DMSO). Data was fixed to a logistic model with four variables and IC50 value was calculated using GraphPad Prism program.

[2] = target: T2, recombinant human MAO-A (monoamine oxidase-A) (Homo sapiens, UniProt P21397); experiment: Activity on recombinant human MAO-A, method similar to VAP-1 assay, 0.5 mM tyramine substrate; conditions: read-out: Inhibitory Activity (IC50, nM) MAO-A
T2 construct: purchased Sigma-Aldrich
T2 sequence (P21397 1-527): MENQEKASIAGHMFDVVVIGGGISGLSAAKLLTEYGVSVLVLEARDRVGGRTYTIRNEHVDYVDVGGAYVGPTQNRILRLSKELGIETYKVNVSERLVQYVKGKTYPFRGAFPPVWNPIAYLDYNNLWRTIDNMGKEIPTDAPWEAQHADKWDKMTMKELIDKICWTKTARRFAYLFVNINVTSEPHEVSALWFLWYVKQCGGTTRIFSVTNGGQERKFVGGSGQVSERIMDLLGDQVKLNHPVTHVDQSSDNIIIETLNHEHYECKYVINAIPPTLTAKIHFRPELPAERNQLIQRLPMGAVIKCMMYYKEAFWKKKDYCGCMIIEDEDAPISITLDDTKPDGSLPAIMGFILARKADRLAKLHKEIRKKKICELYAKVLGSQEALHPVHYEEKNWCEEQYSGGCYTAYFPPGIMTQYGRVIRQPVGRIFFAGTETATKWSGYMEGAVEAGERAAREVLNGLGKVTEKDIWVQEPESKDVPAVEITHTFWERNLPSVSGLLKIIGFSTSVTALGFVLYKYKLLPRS
Method: as §1
(§2) In addition, the compounds according to the present technology were evaluated in terms of activity on a recombinant human MAO-A (monoamine oxidase-A, Sigma-Aldrich) and a recombinant human MAO-B(monoamine oxidase-B, Sigma-Aldrich) by using as substrates, 0.5 mM tyramine and 1 mM benzylamine, respectively, with a method similar to the activity evaluation method for recombinant human VAP-1. The compounds according to the present technology were also evaluated in terms of activity on a recombinant human DAO (diamine oxidase, R&D systems) by using as a substrate 1 mM putrescine with a method similar to the activity evaluation method for recombinant human VAP-1.

[3] = target: T3, recombinant human MAO-B (monoamine oxidase-B) (Homo sapiens, UniProt P27338); experiment: Activity on recombinant human MAO-B, method similar to VAP-1 assay, 1 mM benzylamine substrate; conditions: read-out: Inhibitory Activity (IC50, nM) MAO-B
T3 construct: purchased Sigma-Aldrich
T3 sequence (P27338 1-520): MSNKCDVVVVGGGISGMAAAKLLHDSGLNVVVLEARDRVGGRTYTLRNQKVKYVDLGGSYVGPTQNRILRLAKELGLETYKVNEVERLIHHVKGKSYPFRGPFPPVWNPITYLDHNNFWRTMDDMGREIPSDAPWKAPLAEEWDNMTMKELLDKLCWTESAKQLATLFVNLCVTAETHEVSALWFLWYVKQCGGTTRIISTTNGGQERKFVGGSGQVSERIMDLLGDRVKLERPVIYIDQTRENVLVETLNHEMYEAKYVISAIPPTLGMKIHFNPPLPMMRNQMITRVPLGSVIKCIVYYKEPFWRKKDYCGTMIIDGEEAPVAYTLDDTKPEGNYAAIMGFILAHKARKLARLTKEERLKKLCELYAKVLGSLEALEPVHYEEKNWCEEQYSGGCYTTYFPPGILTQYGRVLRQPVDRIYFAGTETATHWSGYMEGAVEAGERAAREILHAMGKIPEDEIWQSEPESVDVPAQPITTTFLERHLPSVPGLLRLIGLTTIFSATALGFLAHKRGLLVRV
Method: as §1, §2

[4] = target: T4, recombinant human DAO (diamine oxidase) (Homo sapiens, UniProt P19801); experiment: Activity on recombinant human DAO, method similar to VAP-1 assay, 1 mM putrescine substrate; conditions: read-out: Inhibitory Activity (IC50, nM) DAO
T4 construct: purchased R&D systems
T4 sequence (P19801 20-751): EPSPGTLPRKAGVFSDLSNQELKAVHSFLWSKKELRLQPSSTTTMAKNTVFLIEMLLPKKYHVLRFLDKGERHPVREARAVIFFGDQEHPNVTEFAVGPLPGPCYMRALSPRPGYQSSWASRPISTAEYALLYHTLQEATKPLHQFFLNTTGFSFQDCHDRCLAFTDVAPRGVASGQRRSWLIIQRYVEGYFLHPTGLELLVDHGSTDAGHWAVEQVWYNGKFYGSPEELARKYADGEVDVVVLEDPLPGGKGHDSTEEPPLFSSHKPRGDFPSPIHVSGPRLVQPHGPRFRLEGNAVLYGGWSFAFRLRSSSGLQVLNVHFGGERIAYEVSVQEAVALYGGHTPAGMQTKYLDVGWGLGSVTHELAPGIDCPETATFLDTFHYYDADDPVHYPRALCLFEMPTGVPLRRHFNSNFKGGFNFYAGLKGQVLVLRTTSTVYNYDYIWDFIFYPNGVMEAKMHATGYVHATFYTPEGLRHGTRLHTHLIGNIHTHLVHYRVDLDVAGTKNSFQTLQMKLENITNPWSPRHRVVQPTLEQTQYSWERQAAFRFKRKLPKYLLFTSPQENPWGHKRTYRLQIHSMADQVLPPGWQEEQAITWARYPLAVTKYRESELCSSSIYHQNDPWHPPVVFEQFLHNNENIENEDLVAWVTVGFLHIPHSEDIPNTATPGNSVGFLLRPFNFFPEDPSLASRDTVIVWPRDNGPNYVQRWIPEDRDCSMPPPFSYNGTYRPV
Method: as §1, §2

| SMILES | IC50 [1] | IC50 [2] | IC50 [3] | IC50 [4] |
| --- | --- | --- | --- | --- |
| NC/C(=C\F)Cn1nc2cc(-c3ccc4cn[nH]c4c3)ccn2c1=O [Example 37, 2-[(2E)-2-(aminomethyl)-3-fluoroprop-2-en-1-yl]-7-(1H-indazol-6-yl)[1,2,4]triazolo[4,a]pyridin-3(2H)-one hydrochloride] | 0.1 nM | 26000 nM | 190 nM | 0.3 nM |
| NC/C(=C\F)Cn1nc2ccc(-c3ccc(-c4nc[nH]n4)cc3)cn2c1=O [Example 5, 2-[(2E)-2-(aminomethyl)-3-fluoroprop-2-en-1-yl]-6-[4-(1H-1,2,4-triazol-3-yl)phenyl][1,2,4]triazolo[4,3-a]pyridin-3(2H)-one trifluoroacetate] | 2 nM | > 100000 nM | 1450 nM | < 100 nM |
| NC/C(=C\F)Cn1nc2cc(C3=CCNCC3)ccn2c1=O [Example 34, 2-[(2E)-2-(aminomethyl)-3-fluoroprop-2-en-1-yl]-7-(1,2,3,6-tetrahydropyridin-4-yl)[1,2,4]triazolo[4,3-a]pyridin-3(2H)-one dihydrochloride] | 2 nM | > 100000 nM | > 100000 nM | 1 nM |
| NC/C(=C\F)Cn1nc2cccc(-c3ccc4nonc4c3)n2c1=O [Example 21, 2-[(2E)-2-(aminomethyl)-3-fluoroprop-2-en-1-yl]-5-(2,1,3-benzoxadiazol-5-yl)[1,2,4]triazolo[4,3-a]pyridin-3(2H)-one trifluoroacetate] | 150 nM |  |  |  |
| NC/C(=C\F)Cn1nc2cccc(-c3ccc4c(c3)OCO4)n2c1=O [Example 20, 2-[(2E)-2-(aminomethyl)-3-fluoroprop-2-en-1-yl]-5-(1,3-benzodioxol-5-yl)[1,2,4]triazolo[4,3-a]pyridin-3(2H)-one trifluoroacetate] | > 100 nM |  |  |  |
| NC/C(=C\F)Cn1nc2ccc(Br)cn2c1=O [Example 1, 2-[(2E)-2-(aminomethyl)-3-fluoroprop-2-en-1-yl]-6-bromo[1,2,4]triazolo[4,3-a]pyridin-3(2H)-one hydrochloride] | 87 nM |  |  | 100 nM |
| CC(=O)Nc1ccc(-c2cccc3nn(C/C(=C/F)CN)c(=O)n23)cc1 [Example 18, N-[4-[2-[(2E)-2-(aminomethyl)-3-fluoroprop-2-en-1-yl]-3-oxo-2,3-dihydro[1,2,4]triazolo[4,3-a]pyridin-5-yl]phenyl]acetamide trifluoroacetate] | 90 nM |  |  |  |
| NC/C(=C\F)Cn1nc2ccc(-c3ccc(N4CCOCC4)nc3)cn2c1=O [Example 11, 2-[(2E)-2-(aminomethyl)-3-fluoroprop-2-en-1-yl]-6-[6-(morpholin-4-yl)pyridin-3-yl][1,2,4]triazolo[4,3-a]pyridin-3(2H)-one hydrochloride] | 3.7 nM |  | 39 nM | 0.2 nM |
| CC(=O)Nc1cc(-c2ccc3nn(C/C(=C/F)CN)c(=O)n3c2)ccn1 [Example 8, N-[4-[2-[(2E)-2-(aminomethyl)-3-fluoroprop-2-en-1-yl]-3-oxo-2,3-dihydro[1,2,4]triazolo[4,3-a]pyridin-6-yl]pyridin-2-yl]acetamide trifluoroacetate] | 14 nM |  |  | < 100 nM |
| NC/C(=C\F)Cn1nc2cc(-c3ccc(N4CCOCC4)nc3)ccn2c1=O [Example 33, 2-[(2E)-2-(aminomethyl)-3-fluoroprop-2-en-1-yl]-7-[6-(morpholin-4-yl)pyridin-3-yl][1,2,4]triazolo[4,3-a]pyridin-3(2H)-one hydrochloride] | 0.4 nM |  | 130 nM | 5.8 nM |
| NC/C(=C\F)Cn1nc2cccc(-c3ccc(-c4ccon4)cc3)n2c1=O [Example 19, 2-[(2E)-2-(aminomethyl)-3-fluoroprop-2-en-1-yl]-5-[4-(1,2-oxazol-3-yl)phenyl][1,2,4]triazolo[4,3-a]pyridin-3(2H)-one trifluoroacetate] | 38 nM |  |  |  |
